Experiments:
[1] = tested on: carbapenem-resistant isolates of Klebsiella aerogenes; assay: MIC, broth dilution method (EUCAST); assay type: cell-based; details: median (first and third quartile) over n = 12 isolates; Mueller-Hinton broth, 37 °C, 18–20 h; range tested 0 to 32 μg/mL
Experimental: (§1) The strains of bacteria were isolated in 2021 from patients in the intensive care unit of the Stavropol State Regional Clinical Hospital. Identification and determination of antibiotic resistance of bacterial isolates were carried out using the disk diffusion method as part of a routine microbiological study in accordance with the European Committee on Antimicrobial Susceptibility Testing (EUCAST) protocols in the Department of Clinical Microbiology of the Center of Clinical Pharmacology and Pharmacotherapy.
(§2) The study of the antimicrobial activity of the synthesized peptides was performed by the standard broth dilution method according to the EUCAST guidelines. Briefly, pure bacterial cultures were cultured on a solid nutrient media (mannitol salt agar, BioMedia, Russia). From a fresh morning culture, we prepared a suspension in sterile saline corresponding to a McFarland turbidity standard of 0.5 (which is equivalent to 1–2 × 10^8 CFU/mL). The resulting suspension was dissolved in the BBL^TM Mueller-Hinton broth (Becton, Dickinson and Company, Franklin Lakes, NJ, USA) to obtain an inoculum with an approximate concentration of 5 × 10^5 CFU/mL. The inoculum (100 μL per well) was added to the wells of a sterile 96-well microtiter plate with a U-shaped bottom (Medpolymer, St. Petersburg, Russia). After that, serial two-fold dilutions of tested peptides (100 μL per well) were added to the wells. There were also sterility control wells (Mueller-Hinton broth only, without bacteria) and growth control wells (bacterial inoculum without peptides). Then, the plates were incubated in a thermostat at 37 °C. […] The MIC was taken as the minimum peptide concentration at which there was no visual growth in the corresponding well [26]. The peptides were dissolved in the Mueller–Hinton broth. The experiments with each peptide and bacterial isolate were performed in triplicate (in different plates). MIC values were calculated as median values of three independent replicates (calculations are presented in Supplementary Tables S1–S3).
(§3) Calculations of MICs (median, first, and third quartile) were performed in Microsoft Excel (Supplementary Tables S1–S3). Survival analysis by the Kaplan–Meier method and log-rank (Mantel–Cox) test was performed using GraphPad Prism version 9.2.0 for macOS (GraphPad Software, San Diego, CA, USA, www.graphpad.com, accessed on 29 January 2022).

[2] = tested on: carbapenem-resistant isolates of Pseudomonas aeruginosa; assay: MIC, broth dilution method (EUCAST); assay type: cell-based; details: median (first and third quartile) over n = 17 isolates; Mueller-Hinton broth, 37 °C, 18–20 h; range tested 0 to 32 μg/mL
Experimental: as §1, §2, §3

[3] = tested on: carbapenem-resistant isolates of K. pneumoniae; assay: MIC, broth dilution method (EUCAST); assay type: cell-based, Klebsiella pneumoniae; details: median (first and third quartile) over n = 18 isolates; Mueller-Hinton broth, 37 °C, 18–20 h; range tested 0 to 32 μg/mL
Experimental: as §1
as §2, with “S1–S3). […]” for “S1–S3).”

[4] = tested on: K. pneumoniae-induced sepsis; assay: murine experimental model of K. pneumoniae-induced sepsis, survival; assay type: in vivo, ICR (CD-1) mice; details: for Survival proportions: single i.p. 100 μg dose, n=12
Experimental: To assess the effectiveness of the studied peptides, a murine model of lethal generalized infection was used. The model of sepsis makes it possible to perform a simple and rapid screening assessment of the effectiveness of new antimicrobial agents in vivo [22, 28].
The ICR (CD-1) laboratory mice (females with an average weight of 30 g) were maintained in the vivarium of the Stavropol State Medical University. The mice (four animals per cage) were housed in temperature-controlled rooms at 24 °C and 50–60% humidity with a 12 h/12 h light/dark cycle and water and food availability ad libitum.
The animals were injected with bacterial suspensions of one of the carbapenem-resistant isolates of K. pneumoniae (isolate #7, Supplementary Table S2) prepared from a fresh morning culture in accordance with the McFarland turbidity standard of 15 (which corresponds to an approximate concentration of 4.5 × 10^9 CFU/mL). To determine the turbidity of the suspension, a DEN-1 densitometer (Biosan, Latvia) was used.
At t = 0 min, all animals were infected with K. pneumoniae: 150 μL of a 4.5 × 10^9 CFU/mL suspension (approx. 6.75 × 10^8 CFU per mice). 30 min after infection, the mice received a single injection of peptides at a dose of 100 μg. Mortality was assessed every 24 h for 5 days. Moribund animals were killed humanely to avoid unnecessary distress.
as §3

Sequence: KWKLFKKIWSSVKLKS [PEP-136, synthesized LSTM RNN-generated peptide]
- MIC [1]: not active
- MIC [2]: not active
- MIC [3]: not active

Sequence: GIFSKLAGKKIKNLLISGLKNIGKEVGM [PEP-36, synthesized LSTM RNN-generated peptide]
- MIC [1]: not active
- MIC [2]: not active
- MIC [3]: not active
- Survival proportions ([4]; day 1 after infecting): 91,7%
- Survival proportions ([4]; day 2 after infecting): 75%
- Survival proportions ([4]; day 3 after infecting): 66,7%
- survival proportion by the end of the observation period ([4]; single intraperitoneal 100 μg dose 30 min after infection with 6.75 × 10^8 CFU K. pneumoniae, 5 days, n = 12 mice): 66.7%

Sequence: GILSSFKGVLKGAGKNLLGSLKDKLKN [PEP-174, synthesized LSTM RNN-generated peptide; probably printed as PEP-134 in b33]
- MIC [1]: not active
- MIC [2]: not active
- MIC [3]: not active
